Experimental data: publication PMC12741935 (Alzheimer's & Dementia, 2025)

Legend:
[1] = test system: 14 DIV mouse hippocampal neurons; experiment: oAβ-induced spine loss: drebrin-positive spine density in cultured hippocampal neurons; assay type: cell-based; conditions: oAβ 1 µM + inhibitor 24 h vs oAβ alone; NVS-PAK1-1 10 nM, NVS-PAK1-C 10 nM, AZ13705339 1 nM, G5555 5 nM
Experimental: (§1) For in vitro study, all animal procedures were conducted in accordance with the National Institutes of Health Guide for the Care and Use of Laboratory Animals using protocols approved by the institutional animal care and use committee at Stanford University. Timed pregnant C57BL/6 mice (Strain code: 027) were purchased from Charles River Laboratories and delivered on embryonic day 15 (E15), after which E16 embryos were used for primary hippocampal cultures. Primary embryonic mouse hippocampal neuron cultures were plated on poly‐D‐lysine‐coated (10 µg/mL) glass cover slips at 40,000 to 50,000 cells per well in 12‐well plates (Corning Life Sciences). Cells were seeded in plating medium DMEM/F12 supplemented with 10% fetal bovine serum and 1 × penicillin/streptomycin (PS) for 2 hours. Medium was then changed to B‐27 Plus Neuronal Culture System (Invitrogen) supplemented with PS, and 2 mM glutamine.
(§2) Immunofluorescence was performed as described previously.[24] Briefly, cultured hippocampal neurons were fixed in 4% formaldehyde for 20 minutes, permeabilized for 6 minutes in 80% ice‐cold methanol, and incubated with primary antibodies at 4°C overnight. Primary antibodies used were rabbit polyclonal MAP2 antibody for labeling dendrites (1:1000, #8707, Cell Signaling) and mouse monoclonal drebrin antibody for labeling dendritic spines (1:300; Cat#ADI‐NBA‐110, Enzo). Secondary antibodies consisted of donkey antirabbit or antimouse conjugated with either FITC or Cy3 (1:400; Jackson ImmunoResearch Laboratories, Inc.).
(§3) The cultured hippocampal neurons were imaged using an oil‐based 63x objective on a Leica Stellaris 5 confocal microscope. The cell nucleus was stained with DAPI and imaged at a wavelength of 405 nm (blue channel), the dendrites stained by MAP2 were imaged at 488 nm wavelength (green channel), and the drebrin‐stained spines were imaged at a wavelength of 561 nm (red channel). Z‐stack images of neurons were acquired at a 1024 × 1024 resolution, a zoom factor of 1.0, and a z‐step size of 0.5 µm. The number of steps for every z‐stack picture of a neuron were determined by the size of the neuron in the z‐plane, to ensure that the entirety of a neuron is captured in the picture. The areas to be imaged were selected systematically, starting from the top‐left region to proceeding to the bottom‐right region of a coverslip. For imaging, preference was given to field of views containing isolated neurons versus clustered neurons.
For quantification of drebrin‐positive spines in vitro, the images were analyzed using Imaris 9.3 software. Each image consisted of one major neuron and the “filaments” option in Imaris was applied to manually trace along the dendrites of every neuron, by placing starting and seed points at the beginning and along the length of the dendrites, respectively. The largest dendrite diameter (i.e., Starting Point) was set at 9.00 µm threshold while the thinnest dendrite diameter (i.e., Seed Point) was set at 1.00 µm threshold. After manually tracing the dendrites, the spines along the dendrites were assessed using the automatic “spine detection” function in Imaris. […] The spine density (number of spines/dendrite length) was then calculated for each neuron. All image acquisition and quantification were performed in a blind manner. For in vitro quantification of dendrite degeneration, Neurolucida (MBF Biosciences) in the manual mode was used to measure the total dendritic length, numbers of dendrites, and dendritic complexity for each neuron.

[2] = test system: 14 DIV mouse hippocampal neurons; experiment: oTau-induced spine loss: drebrin-positive spine density in cultured hippocampal neurons; assay type: cell-based; conditions: oTau 50 nM + inhibitor 24 h vs oTau alone; NVS-PAK1-1 10 nM, NVS-PAK1-C 10 nM, AZ13705339 1 nM, G5555 5 nM
Experimental: as §1, §2
The cultured hippocampal neurons were imaged using an oil‐based 63x objective on a Leica Stellaris 5 confocal microscope. The cell nucleus was stained with DAPI and imaged at a wavelength of 405 nm (blue channel), the dendrites stained by MAP2 were imaged at 488 nm wavelength (green channel), and the drebrin‐stained spines were imaged at a wavelength of 561 nm (red channel). […] The number of steps for every z‐stack picture of a neuron were determined by the size of the neuron in the z‐plane, to ensure that the entirety of a neuron is captured in the picture. […]
For quantification of drebrin‐positive spines in vitro, the images were analyzed using Imaris 9.3 software. […] After manually tracing the dendrites, the spines along the dendrites were assessed using the automatic “spine detection” function in Imaris. […] The spine density (number of spines/dendrite length) was then calculated for each neuron. All image acquisition and quantification were performed in a blind manner. For in vitro quantification of dendrite degeneration, Neurolucida (MBF Biosciences) in the manual mode was used to measure the total dendritic length, numbers of dendrites, and dendritic complexity for each neuron.

[3] = test system: 14 DIV hippocampal neurons; experiment: oAβ-induced dendrite degeneration (MAP2 dendrite length, number, complexity) in cultured hippocampal neurons; assay type: cell-based, mouse; conditions: oAβ 1 µM + inhibitor 24 h vs oAβ alone, NVS-PAK1-1 10 nM, AZ 1 nM, G 5 nM; for total dendrite length per neuron: PAK1-C 10 nM
Experimental: as §1, §2, §3
(§4) For quantification of drebrin‐positive spines in vitro, the images were analyzed using Imaris 9.3 software. Each image consisted of one major neuron and the “filaments” option in Imaris was applied to manually trace along the dendrites of every neuron, by placing starting and seed points at the beginning and along the length of the dendrites, respectively. The largest dendrite diameter (i.e., Starting Point) was set at 9.00 µm threshold while the thinnest dendrite diameter (i.e., Seed Point) was set at 1.00 µm threshold. After manually tracing the dendrites, the spines along the dendrites were assessed using the automatic “spine detection” function in Imaris. The thinnest spine diameter was set at 0.80 µm threshold while the maximum spine length was set at 5.00 µm. The spine density (number of spines/dendrite length) was then calculated for each neuron. All image acquisition and quantification were performed in a blind manner. For in vitro quantification of dendrite degeneration, Neurolucida (MBF Biosciences) in the manual mode was used to measure the total dendritic length, numbers of dendrites, and dendritic complexity for each neuron.

[4] = test system: 14 DIV hippocampal neurons; experiment: oTau-induced dendrite degeneration (MAP2 dendrite length, number) in cultured hippocampal neurons; assay type: cell-based, mouse; conditions: oTau 50 nM + inhibitor 24 h vs oTau alone, NVS-PAK1-1 10 nM, AZ 1 nM, G 5 nM; for total dendrite length per neuron: PAK1-C 10 nM
Experimental: as §1, §2, §3, §4

[5] = test system: kinome; broad panel of proteases, receptors, and bromodomains; conditions: cited from earlier work

SMILES | drebrin-stained spine density (spine counts per µm of dendritic length) [1] | drebrin-stained spine density (spine counts per µm of dendritic length) [2] | dendrite number per neuron [3] | total dendrite length per neuron [3] | dendrite number per neuron [4] | total dendrite length per neuron [4] | off-target kinase inhibition [5]
CCS(=O)(=O)c1cc(Nc2ncc(F)c(N(Cc3ccccc3C#N)c3cc(CO)ccc3C)n2)ccc1N1CCN(C)CC1 [AZ13705339] | significantly higher spine counts | significantly higher spine counts | significantly increased dendrite number per neuron | preserved dendrite length | significantly increased dendrite number per neuron | preserved dendrite length | inhibit off‐target kinases
CNc1ncc2cc(-c3ccc(-c4cccc(C)n4)cc3Cl)c(=O)n(C[C@H]3OC[C@H](N)CO3)c2n1 [G5555] | significantly higher spine counts | significantly higher spine counts | significantly increased dendrite number per neuron | Neither G nor PAK1‐C showed a significant dendrite length difference | significantly increased dendrite number per neuron | Neither G nor PAK1‐C showed a significant dendrite length difference | inhibit off‐target kinases
CN(C)C(=O)N1CC[C@H](N=C2Nc3cc(F)ccc3N(CC(F)F)c3ccc(Cl)cc32)C1 [NVS‐PAK1‐C] | not reflected | not reflected | – | Neither G nor PAK1‐C showed a significant dendrite length difference | – | Neither G nor PAK1‐C showed a significant dendrite length difference | –
